The record followed here is EP4567037A1, “USE OF PYRROLOPYRIMIDINE COMPOUND IN TREATMENT OF ACUTE GRAFT VERSUS HOST DISEASE” (Chia Tai Tianqing Pharmaceutical Group Co., Ltd., priority 2022, dated 2024).

The data set concerns glucocorticoid-resistant acute graft-versus-host disease. The experiment in a line: Clinical study of tablets of the compound of formula II in subjects with glucocorticoid-resistant acute graft-versus-host disease. The format is in vivo. As for the experimental part:
This study was conducted to evaluate the safety and preliminary efficacy of the compound of formula II for treating acute graft-versus-host disease in a subject resistant to glucocorticoid.
Administration method: orally administered twice a day at fasting, at a dose of 10 mg or 15 mg each time, with 28 consecutive days of administration as one treatment cycle.
Drug: the compound of formula I in 5 mg or 20 mg tablets, with the compound of formula I being shown as its stereoisomer, a compound of formula II: [drawing 4]
• 1) Aged 12-75 years (inclusive), with no gender restriction; • 2) Previously received allogeneic hematopoietic stem cell transplantation (including non-myeloablative, myeloablative, and reduced-intensity conditioning transplantation of bone marrow, peripheral blood stem cells, and umbilical cord blood); • 3) Clinically diagnosed with aGVHD of grade II to grade IV according to MAGIC guidelines; • Resistance to glucocorticoid therapy *, defined as resistance to high-dose systemic glucocorticoid (methylprednisolone at a dose of 1-2 mg/kg/day or prednisone at an equivalent dose of 1.25-2.5 mg/kg/day), taken alone or taken in combination with a calcineurin inhibitor (CNI); • * Subjects meeting any one of the following conditions can be defined as resistant to conventional glucocorticoid therapy, i.e., therapy with methylprednisolone at a dose of ≥ 1 mg/kg/day or therapy with another type of glucocorticoid at an equivalent dose: (1) progression of aGVHD after the glucocorticoid therapy has been administered for 3 days, (2) no amelioration in aGVHD after the glucocorticoid therapy has been administered for 5 days, and (3) incomplete response of aGVHD after the glucocorticoid therapy has been administered for 14 days; • 4) Within 48 h before the start of therapy, neutrophil count (ANC) > 1 × 10^9/L, and platelet count (PLT) ≥ 20×10^9/L; and • 5) Subjects with voluntary participation, signed informed consent, and good compliance.
During the study, the investigator scored aGVHD treatment responses according to Harris 2016 response evaluation criteria.
The evaluation index may be selected from the group consisting of: • Objective response rate (ORR): refers to the percentage of subjects in complete response (CR) or very good partial response (VGPR) or partial response (PR). • Complete response (CR) rate: refers to the percentage of subjects in complete response (CR). • Overall survival (OS): refers to the time from the start of the first administration to death due to any cause. • Duration of response (DOR): for subjects in complete response (CR) or very good partial response (VGPR) or partial response (PR) on day 28, DOR is defined as the time from the date of the first recorded response to the date of the first recorded disease progression or the start of any new systemic therapy for aGVHD. • Event-free survival (EFS): defined as the time from the date of the first administration to the date of relapse/progression of hematologic disease, transplantation failure, or death due to any cause. • Non-relapse mortality (NRM): defined as the time from the date of the first administration to the date of death not related to relapse/progression of hematologic disease. • Incidence of malignancy relapse/progression (MR): defined as the time from the date of the first administration to the date of relapse/progression of hematologic disease.
Twelve evaluable subjects orally took tablets of the compound of formula II twice a day at fasting, at a dose of 10 mg each time, with 28 days as one administration cycle. The ORR of the 12 subjects on D28 was 83.3% (10/12), with 8 achieving CR and 2 achieving VGPR (very good partial response). […] Evaluation of efficacy in patients

The mark [1] stands for this setting: D28, of 12 evaluable subjects, 10 mg twice a day.

For `N#CC[C@H](C1CCCC1)n1cc(-c2ncnc3[nH]ccc23)c(N)n1` [compound of formula II], the Tolerability and safety entry (10 mg twice a day, oral tablets, overall adverse events being controllable) is “good tolerability and safety”. Moreover, the “ORR on D28” value (12 evaluable subjects, oral, twice a day at fasting, 10 mg each time, 28-day cycle, Harris 2016 response criteria) came out at 83.3%. The “ORR on D28 (responders/evaluable subjects)” value (12 evaluable subjects, oral, twice a day, 10 mg each time, 28-day cycle) is reported as 10/12. Also, under setting [1], the “Number of subjects achieving CR” value amounted to 8. Moreover, the “Number of subjects achieving VGPR (very good partial response)” value under setting [1] was determined as 2. For the same compound, the “Number of patients achieving ORR on D28” value by setting is: (subgroup aGVHD Grade II (6 patients)) 6; (subgroup aGVHD Grade III (6 patients)) 4; (subgroup organ affected by aGVHD: Liver (5 patients)) 3; (subgroup organ affected by aGVHD: Lower digestive tract (5 patients)) 4; (subgroup organ affected by aGVHD: Skin (8 patients)) 8; (subgroup organ affected by aGVHD: Upper digestive tract (2 patients)) 2. The “Number of patients achieving ORR on D28” value is, setting by setting: (subgroup previous therapy Hormone + CD25 monoclonal antibody (1 patient)) 0; (subgroup previous therapy Hormone + CNI + MMF (6 patients)) 5; (subgroup previous therapy Hormone + MTX + CNI + MMF (1 patient)) 1; (subgroup previous therapy Hormone ± CNI (4 patients)) 4.
